Patent US20210062177A1, “Alginate Lyase” (Ocean University of China, priority 2019, published 2021)
Read-outs that look alike come from different tables or passages of the source.

Key:
ScCD6 = assay: Effects of metal ions and chemical reagents on ScCD6 enzyme activity; type: biochemical, Streptomyces coelicolor A3(2); conditions: ScCD6 activity with metal ion/chemical reagent; for Relative enzyme activity %: control = 100.00
Procedure: (§1) Using 0.3% (w/v) sodium alginate as the substrate, in a 200 μL reaction system, after reaction for 20 min and boiling 2 min for inactivating, DNS method was used to determine the content of reducing sugar in the product to characterize the enzyme activity.
(§2) To determine the temperature stability, ScCD6 was incubated at 30° C., 40° C., 50° C. and 60° C., and its residual enzyme activity was determined by sampling at different times. When determining the stabilities of the enzyme under different pH, the enzyme was stored in buffer solution with pH 7.0, 8.0, 9.0 and 10.0 at 4° C., and the residual enzyme activity was determined by sampling at different times. […] In order to investigate the substrate specificity of ScCD6, sodium alginate, poly M and poly G were used as substrates and reacted at 40° C. for 20 min. The content of reducing sugar was determined by DNS method.

[1] = ScCD6 enzyme activity, reducing sugar by DNS method (optimum temperature and pH); type: biochemical
Procedure: as §1, §2

[2] = Substrate specificity of ScCD6 (DNS method); type: biochemical; conditions: sodium alginate, poly M, poly G; 40° C. for 20 min
Procedure: as §2

[3] = Procedure: as §1, §2
[4] = Product analysis of polysaccharide degradation by ScCD6 (HPLC); type: biochemical
Procedure: Further, the concentration of substrate (sodium alginate, poly M, poly G) in the reaction can be 0.3% (w/v). An amount of added enzyme can be 0.6 U. A reaction can be carried out at 30° C., pH 7.0 for 12 hours. The obtained products can be used for HPLC tests.
Using 0.3% (w/v) sodium alginate, poly M and poly G substrates, in a 200 μL reaction system, 0.6 U alginate lyase ScCD6 was added and reacted at 30° C. and pH 7.0 for 12 hours. The reaction product was boiled for 10 min and centrifuged at 10,000 rpm for 10 min to remove the proteins and other impurities in the system. The supernatant was collected and passed through a 0.22 μm filter membrane for HPLC test. The HPLC conditions were as follows: Superdex™ 30 Increase 30/100 Gel column, 0.2 M NH4HCO3 as mobile phase, flow rate of 0.4 mL/min, room temperature (˜25° C.), loading sample volume of 100 μL, UV detection at 235 nm.

[Ba+2] [Ba^2+]
effect on the enzyme activity (ScCD6): promote the enzyme activity
Relative enzyme activity % (ScCD6): 108.96%

[Ca+2] [Ca^2+]
effect on the enzyme activity (ScCD6): little effects on the enzyme activity
Relative enzyme activity % (ScCD6): 101.76%

[Co+2] [Co^2+]
effect on the enzyme activity (ScCD6): promote the enzyme activity
Relative enzyme activity % (ScCD6): 106.89%

[Cu+2] [Cu^2+]
effect on the enzyme activity (ScCD6): inhibit the enzyme activity
Relative enzyme activity % (ScCD6): 86.33%

[Fe+3] [Fe^3+]
effect on the enzyme activity (ScCD6): promote the enzyme activity
Relative enzyme activity % (ScCD6): 110.41%

[K+] [K^+]
effect on the enzyme activity (ScCD6): little effects on the enzyme activity
Relative enzyme activity % (ScCD6): 98.28%

[Mg+2] [Mg^2+]
effect on the enzyme activity (ScCD6): inhibit the enzyme activity
Relative enzyme activity % (ScCD6): 91.64%

[Mn+2] [Mn^2+]
effect on the enzyme activity (ScCD6): promote the enzyme activity
Relative enzyme activity % (ScCD6): 110.91%

O=C([O-])CN(CCN(CC(=O)[O-])CC(=O)O)CC(=O)O.[Na+].[Na+] [Na2EDTA]
effect on the enzyme activity (ScCD6): lose the enzyme activity
Relative enzyme activity % (ScCD6): 1.03%

[Na+] [Na^+]
effect on the enzyme activity (ScCD6): little effects on the enzyme activity
Relative enzyme activity % (ScCD6): 101.15%

[Ni+2] [Ni^2+]
effect on the enzyme activity (ScCD6): inhibit the enzyme activity
Relative enzyme activity % (ScCD6): 85.86%

CCCCCCCCCCCCOS(=O)(=O)[O-].[Na+] [SDS]
effect on the enzyme activity (ScCD6): inhibit the enzyme activity
Relative enzyme activity % (ScCD6): 92.02%

[Zn+2] [Zn^2+]
effect on the enzyme activity (ScCD6): promote the enzyme activity
Relative enzyme activity % (ScCD6): 109.04%

B1: ScCD6: novel PL-6 family alginate lyase from Streptomyces coelicolor A3(2), 493 amino acids, SEQ ID NO: 1 (protein)
chain: MNRPRLSTYAAITVAAITIAALTTAASALASTGDTSSRTPSGNSTPQANATIVNVSSSTQLTTAMANAVAGQTIVLANGSYSIGKLNAKNGTSSAPITIMAAQQGKAIITGGQLEVLSSSYVTFSGLKWTNSNTLKITSSHHIRLTRNHFRLTESSSLKWIIIQGANSHHNRIDHNLFEEKHQLGNFITIDGSSTQQSQYDLIDYNHFRNIGPRATNEMEAIRVGWSAISKSDGFTTVENNLFENCDGDPEIVSVKSNANTVRYNTFRTSQGSVSLRHGNRSQVHGNFFFGGGKTGTGGVRVYGQDHKIYNNHFEGLTGTGYDAALQLDGGDVDTSGALSSHWRVYRATAVHNTFVNNVSNIEIGANYSLAPVDSLVADNIVVGSSGKLFNELKMPKNMTYAGNIGWPTGSATIGITTGVRTVNPLLAKQGEVYRLGTGSPAVNTASGSYSFLADDMDGQSRSGTADVGADELSTGTVVHKPLNSADVGISAP
modifications: Streptomyces coelicolor
optimum pH ([1]; 50° C., pH 3.0-10.0, 0.3% (w/v) sodium alginate): 9.0
optimum reaction temperature ([1]; pH 7.0, temperature range of 30-100° C., 0.3% (w/v) sodium alginate): 50 °C
substrate specificity [2]: poly M specific alginate lyase
enzyme activity retained ([3]; 4° C. for 4 days at pH 7.0-10.0): 80%
enzyme activity retained ([3]; 30° C. for 24 hours): 80%
degradation of polysaccharides ([4]; 0.3% (w/v) sodium alginate, poly M, poly G, 0.6 U, 30° C., pH 7.0, 12 hours, HPLC): could degrade all three kinds of polysaccharides
mode of digestion ([4]; HPLC product analysis): endo-type alginate lyase
polymerization degree of unsaturated oligosaccharide products ([4]; degradation of sodium alginate): 2-8
unsaturated disaccharides as share of the total unsaturated oligosaccharide products ([4]; degradation of sodium alginate): about 70%
